Source: patent publication US11524968B2, “Heterocyclic compound as a protein kinase inhibitor” (HK inno.N Corporation, priority 2017, dated 2022)

Target: JAK1 (Homo sapiens (Human), UniProt P23458)
Assay: Analysis of JAK1 activity inhibition ability (ADP-Glo Kinase Assay)
Type: biochemical
Conditions: JAK1 enzyme, ADP-Glo luminescence, ATP 250 uM, IRS-itide substrate, 30° C. 40 minutes; read-out: IC50
Method in brief: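 ADP-Glo luminescence read-out of ADP production, with IC50 taken as the concentration halving JAK1 activity relative to control. Enzyme was incubated 40 min at 30 °C with compound, IRS-itide (40 ng/mL) and ATP (250 uM), concentrations as prepared in pH 7.5 Tris-HCl/MgCl2/BSA/DTT buffer.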

Chain of JAK1 (P23458 whole entry): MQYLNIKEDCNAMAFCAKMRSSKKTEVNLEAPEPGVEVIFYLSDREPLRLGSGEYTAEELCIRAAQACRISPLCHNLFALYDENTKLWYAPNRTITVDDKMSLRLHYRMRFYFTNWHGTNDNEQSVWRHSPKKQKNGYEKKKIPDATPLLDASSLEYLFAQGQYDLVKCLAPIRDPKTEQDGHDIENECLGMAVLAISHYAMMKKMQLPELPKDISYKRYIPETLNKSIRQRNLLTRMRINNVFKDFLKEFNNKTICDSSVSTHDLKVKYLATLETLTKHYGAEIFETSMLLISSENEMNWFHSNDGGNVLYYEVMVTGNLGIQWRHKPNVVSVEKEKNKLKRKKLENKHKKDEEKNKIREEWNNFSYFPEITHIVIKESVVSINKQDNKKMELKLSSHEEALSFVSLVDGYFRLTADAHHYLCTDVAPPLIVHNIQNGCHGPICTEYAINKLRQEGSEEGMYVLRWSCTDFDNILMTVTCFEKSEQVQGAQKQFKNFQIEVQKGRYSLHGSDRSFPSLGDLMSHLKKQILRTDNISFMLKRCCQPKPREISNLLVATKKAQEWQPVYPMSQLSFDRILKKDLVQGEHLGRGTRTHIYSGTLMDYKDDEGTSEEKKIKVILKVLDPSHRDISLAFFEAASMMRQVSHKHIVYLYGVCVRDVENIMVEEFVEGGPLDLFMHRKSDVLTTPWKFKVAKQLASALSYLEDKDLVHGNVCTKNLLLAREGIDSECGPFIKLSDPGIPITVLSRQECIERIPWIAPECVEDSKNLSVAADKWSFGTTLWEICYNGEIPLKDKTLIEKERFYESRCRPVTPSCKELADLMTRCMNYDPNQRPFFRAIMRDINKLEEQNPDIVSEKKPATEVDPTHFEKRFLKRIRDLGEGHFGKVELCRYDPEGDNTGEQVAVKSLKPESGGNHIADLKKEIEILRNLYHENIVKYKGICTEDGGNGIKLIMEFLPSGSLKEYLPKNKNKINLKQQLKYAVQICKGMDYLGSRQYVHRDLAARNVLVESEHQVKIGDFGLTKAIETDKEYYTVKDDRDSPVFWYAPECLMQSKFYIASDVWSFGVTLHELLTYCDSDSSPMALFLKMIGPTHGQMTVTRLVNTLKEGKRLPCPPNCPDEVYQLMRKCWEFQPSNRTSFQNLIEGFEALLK

Question: O=C(Nc1cc(C2=CCC(NC(=O)C3CCCC3)CC2)c2cc[nH]c2n1)C1CC1 (stereo not shown) [Example 245, N-(4-(6-(cyclopropanecarboxamido)-1H-pyrrolo[2,3-b]pyridin-4-yl)cyclohex-3-en-1-yl)cyclopentanecarboxamide] was tested. Which IC50 did it give?
Answer: Its IC50 is 20 to 200 nM.

Question: Which IC50 does the source give for O=C(Nc1cc(-c2ccc(C(=O)N3CCS(=O)(=O)CC3)cc2)c2cc[nH]c2n1)C1CC1 [Example 520, N-(4-(4-(1,1-dioxidothiomorpholine-4-carbonyl)phenyl)-1H-pyrrolo[2,3-b]pyridin-6-yl)cyclopropanecarboxamide] here?
Answer: The IC50 was > 200 nM.

Question: For O=C(Nc1cc(C2=CCN(C(=O)CCC(F)(F)F)CC2)c2cc[nH]c2n1)C1CC1 [Example 254, N-(4-(1-(4,4,4-trifluorobutanoyl)-1,2,3,6-tetrahydropyridin-4-yl)-1H-pyrrolo[2,3-b]pyridin-6-yl)cyclopropanecarboxamide], which IC50 is on record?
Answer: The IC50 was 20 to 200 nM.

Question: With O=C(Nc1cc(-c2ccc(CNS(=O)(=O)c3ccc(F)c(F)c3)cc2)c2cc[nH]c2n1)C1CC1 [Example 582, N-(4-(4-(((3,4-difluorophenyl)sulfonamido)methyl)phenyl)-1H-pyrrolo[2,3-b]pyridin-6-yl)cyclopropanecarboxamide] as the molecule, how does the IC50 read?
Answer: The IC50 was < 20 nM.

Question: O=C(Nc1nc(-c2ccc(NS(=O)(=O)C3CCCCC3)cc2)c2cc[nH]c2n1)C1CC1 [Example 183, N-(4-(4-(cyclohexanesulfonamido)phenyl)-7H-pyrrolo[2,3-d]pyrimidin-2-yl)cyclopropanecarboxamide] was tested. Which IC50 did it give?
Answer: Its IC50 is < 20 nM.

Question: CCCCNC(=S)N1CCC(c2cc(NC(=O)C3CC3)nc3[nH]ccc23)CC1 [Example 659, N-(4-(1-(butylcarbamothioyl)piperidin-4-yl)-1H-pyrrolo[2,3-b]pyridin-6-yl)cyclopropanecarboxamide] was tested. Which IC50 did it give?
Answer: Its IC50 is > 200 nM.

Question: With O=C(Nc1nc(-c2ccc(NS(=O)(=O)C3CCS(=O)(=O)CC3)cc2)c2cc[nH]c2n1)C1CC1 [Example 195, N-(4-(4-((1,1-dioxidotetrahydro-2H-thiopyran)-4-sulfonamido)phenyl)-7H-pyrrolo[2,3-d]pyrimidin-2-yl)cyclopropanecarboxamide] as the molecule, how does the IC50 read?
Answer: Its IC50 is 20 to 200 nM.

Question: With CCCS(=O)(=O)N1C2C=C(c3cc(NC(=O)C4CC4)nc4[nH]ccc34)CC1CC2 (stereo not shown) [Example 176, N-(4-(8-(propylsulfonyl)-8-azabicyclo[3.2.1]oct-2-en-3-yl)-1H-pyrrolo[2,3-b]pyridin-6-yl)cyclopropanecarboxamide] as the molecule, how does the IC50 read?
Answer: The IC50 was 20 to 200 nM.

Question: Which IC50 does the source give for CC1CN(C2(CC#N)COC2)CC=C1c1cc(NC(=O)C2CC2)nc2[nH]ccc12 (stereo not shown) [Example 613, N-(4-(1-(3-(cyanomethyl)oxetan-3-yl)-3-methyl-1,2,3,6-tetrahydropyridin-4-yl)-1H-pyrrolo[2,3-b]pyridin-6-yl)cyclopropanecarboxamide] here?
Answer: Its IC50 is 20 to 200 nM.

Question: Which IC50 does the source give for CCCS(=O)(=O)Nc1ccc(-c2cc(NC(=O)C3CC3)nc3[nH]ccc23)c(C)c1F [Example 100, N-(4-(3-fluoro-2-methyl-4-(propylsulfonamido)phenyl)-1H-pyrrolo[2,3-b]pyridin-6-yl)cyclopropanecarboxamide] here?
Answer: The IC50 was 20 to 200 nM.

Question: With N#CCC(=O)N1C2C=C(c3cc(NC(=O)C4CC4)nc4[nH]ccc34)CC1CCC2 (stereo not shown) [Example 394, N-(4-(9-(2-cyanoacetyl)-9-azabicyclo[3.3.1]non-2-en-3-yl)-1H-pyrrolo[2,3-b]pyridin-6-yl)cyclopropanecarboxamide] as the molecule, how does the IC50 read?
Answer: Its IC50 is < 20 nM.

Question: N#CCCC(=O)N1C[C@@H]2C[C@H]1CN2c1cc(NC(=O)C2CC2)nc2[nH]ccc12 [Example 680, N-(4-((1S,4S)-5-(3-cyanopropanoyl)-2,5-diazabicyclo[2.2.1]heptan-2-yl)-1H-pyrrolo[2,3-b]pyridin-6-yl)cyclopropanecarboxamide] was tested. Which IC50 did it give?
Answer: The IC50 was > 200 nM.

Question: Which IC50 does the source give for CN(CC#N)C(=O)Cc1ccc(-c2cc(NC(=O)C3CC3)nc3[nH]ccc23)cc1 [Example 573, N-(4-(4-(2-((cyanomethyl)(methyl)amino)-2-oxoethyl)phenyl)-1H-pyrrolo[2,3-b]pyridin-6-yl)cyclopropanecarboxamide] here?
Answer: Its IC50 is 20 to 200 nM.
